{
  "source": "paper PMC9104438",
  "about": "“Application of a Fluorescence Anisotropy-Based Assay to Quantify Transglutaminase 2 Activity in Cell Lysates” (International Journal of Molecular Sciences, 2022)",
  "target": "T1, TGase 2 in cell lysates (Homo sapiens, UniProt P21980)",
  "T1 construct": "endogenous in cells; host or cells: lysates of 30 cell lines (27 human, 3 mouse), e.g. HUVEC, A375",
  "T1 sequence (P21980 2-687 limits assumed)": "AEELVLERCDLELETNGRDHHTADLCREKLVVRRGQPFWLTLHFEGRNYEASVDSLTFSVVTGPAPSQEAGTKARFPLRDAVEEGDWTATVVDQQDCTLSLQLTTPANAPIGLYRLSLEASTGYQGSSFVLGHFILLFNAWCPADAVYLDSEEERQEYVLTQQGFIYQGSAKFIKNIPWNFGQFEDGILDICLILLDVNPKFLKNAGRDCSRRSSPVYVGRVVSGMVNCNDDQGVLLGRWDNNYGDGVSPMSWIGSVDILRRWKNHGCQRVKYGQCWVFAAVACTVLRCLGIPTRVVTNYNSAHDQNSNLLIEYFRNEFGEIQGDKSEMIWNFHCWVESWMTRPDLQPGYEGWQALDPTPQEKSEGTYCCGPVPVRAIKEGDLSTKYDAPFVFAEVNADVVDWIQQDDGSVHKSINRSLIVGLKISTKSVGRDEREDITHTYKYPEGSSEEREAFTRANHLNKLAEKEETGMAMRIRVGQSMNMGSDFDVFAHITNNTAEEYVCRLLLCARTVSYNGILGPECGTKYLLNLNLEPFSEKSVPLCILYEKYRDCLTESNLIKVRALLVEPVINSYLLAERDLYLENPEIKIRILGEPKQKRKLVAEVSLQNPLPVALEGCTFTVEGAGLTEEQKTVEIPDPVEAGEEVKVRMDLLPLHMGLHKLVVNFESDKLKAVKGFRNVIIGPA",
  "assay": "FA-based assay of TGase 2 activity in cell lysates, control with inhibitor",
  "format": "biochemical, human and mouse",
  "conditions": "10 µM inhibitor, preincubation 10 min; DMC 30 µM, R-I-Cad 0.81 µM; all studied cell lines",
  "description": "Lysis of cell pellets was performed as described recently. Accordingly, cell pellets were resuspended in 50 µL modified RIPA buffer A, incubated on ice for 30 min and applied to ultrasound (Bandelin Sonopuls, 2 × 15 s, 20% power at ambient temperature). Subsequently, cell lysates were incubated on ice for 10 min and were then spun for 15 min at 4 °C at 15,000× g. The supernatants were transferred into fresh tubes. The protein content was determined with a BCA protein assay (ThermoFisher, Waltham, MA, USA) according to the manufacturer’s protocol. Lysates were stored at −60 °C.",
  "data": [
    {"smiles": "C=CC(=O)NCCCC[C@H](NC(=O)Cc1ccccc1)C(=O)N1CCN(c2cccc(C)n2)CC1", "note": "[Compound 1]", "values": [
      {"measurement": "FA increase over time in cell lysates in the presence of inhibitor", "value": "below the detection limit"}
    ]}
  ]
}
